Assay [1] deals with HCV replicon in HUH-7 cells. Nature of the assay: HCV replicon FRET assay. The class given is cell-based, Hepatitis C virus (strain 1b). To be noted: Hepatitis C virus. The procedure, abridged:
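HUH-7 cells stably carrying a genotype 1b subgenomic HCV replicon (neo selection) treated with compound for 4 days at 37 °C, 0.5% DMSO final. Cytotoxicity (CC50) from alamar Blue fluorescence after 4 h (ex 530/em 580 nm), before the FRET replication read-out.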

Assay [2] deals with T1, human neutrophil elastase (HNE) (Homo sapiens, UniProt P08246).
T1 construct: purchased Sigma
T1 sequence (P08246 30-267): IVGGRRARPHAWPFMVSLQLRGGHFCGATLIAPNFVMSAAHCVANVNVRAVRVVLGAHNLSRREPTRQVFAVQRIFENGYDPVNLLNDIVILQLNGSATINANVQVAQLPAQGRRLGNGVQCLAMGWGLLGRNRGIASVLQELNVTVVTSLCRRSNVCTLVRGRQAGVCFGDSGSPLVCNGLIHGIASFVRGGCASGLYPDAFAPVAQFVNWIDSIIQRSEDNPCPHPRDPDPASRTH
The experiment in a line: Specificity assay, human neutrophil elastase. Particulars: 2 h enzyme-inhibitor pre-incubation; read-out: HLE activity in the specificity assays. It counts as biochemical. As for the experimental part:
The specificities of compounds of the present disclosure were determined against a variety of serine proteases: human neutrophil elastase (HNE), porcine pancreatic elastase (PPE) and human pancreatic chymotrypsin and one cysteine protease: human liver cathepsin B. In all cases a 96-well plate format protocol using colorimetric p-nitroaniline (pNA) substrate specific for each enzyme was used as described previously (PCT Patent Application No. WO 00/09543) with some modifications to the serine protease assays. All enzymes were purchased from Sigma while the substrates were from Bachem.
Each assay included a 2 h enzyme-inhibitor pre-incubation at room temperature followed by addition of substrate and hydrolysis to ˜30% conversion as measured on a Spectramax Pro microplate reader. Compound concentrations varied from 100 to 0.4 μM depending on their potency.
The final conditions for each assay were the same as those described in WO 03/099274, page 623.
The percentage of inhibition was calculated using the formula: [1−((UVinh−UVblank)/(UVctl−UVblank))]×100
A non-linear curve fit was applied to the inhibition-concentration data, and the 50% effective concentration (IC50) was calculated by the use of Excel XLfit software.

Where two headings read alike, the source gives them in different places. Bounds are passed on as bounds.

We go through one compound from patent publication US7601686B2, “Hepatitis C virus inhibitors” (Bristol-Myers Squibb Company, priority 2005, dated 2009).

For `C=CC1CC1(NC(=O)[C@@H]1C[C@@H](NC(=O)c2cc(-c3ccccc3)nc3ccccc23)CN1C(=O)[C@@H](NC(=O)CC1CC1)C(C)(C)C)C(=O)NS(=O)(=O)C1CC1` (stereo partly drawn) [Compound 9], the EC50 in assay [1] (HCV replicon cell assay, HUH-7, read-out: EC50 Range) was 150 to 15000 nM; in assay [1] (HCV replicon, HUH-7 cells, read-out: EC50 value in the replicon assay), 2250 nM. The IC50 in assay [2] was over 100000 nM.
